Data set [1] has as its system Colon 26 tumors. In words: In-vivo photodynamic therapy (PDT), tumor regrowth monitored 60 days. The settings on record: BALB/c mice bearing Colon 26 tumors, PS dose 0.47 moles/kg, light 665 nm, 135 J/cm^2, 75 mW/cm^2, 24 hours post-injection. As for the experimental part: Eight- to twelve-week-old BALB/cAnNCr mice (Jackson Laboratory, Bar Harbor, Me.) were inoculated subcutaneously (s.c.) with 1×10^6 Colon 26 cells. When tumors reached 40-70 mm^3, mice were injected i.v. (tail vein) with PS 1 (formulated in 1% Tween 80/D5W) or PAA nanoconstructs/formulations 6-10 suspended in water and further diluted in D5W. 24 hours post i.v. injection (dose of PS 1: […]), mice (BALB/c mice bearing Colon 26 tumors, 10 mice/group) were restrained in plexiglass holders and tumors were irradiated at 665 nm with a fluence and fluence rate of 135 J/cm^2 at 75 mW/cm^2, respectively, using a pumped argon-dye laser. The growth of tumors was measured two to three times per week and the mice were monitored for a total of 60 days post PDT treatment. When the tumor regrowth was >400 mm^3, the mice were euthanized according to the guidelines of the institute approved animal protocol.

For data set [2] the following is noted: in vivo; cited from earlier work.
For data set [3] the following is noted: in vivo; cited from earlier work. This is another data set of the same source.
Data set [4] in a line: Water solubility. Format: physicochemical.

The values below come from patent publication US10568963B2, “Multifunctional nanoplatforms for fluorescence imaging and photodynamic therapy developed by post-loading photosensitizer and fluorophore to polyacrylamide nanoparticles” (HEALTH RESEARCH, INC., priority 2009, dated 2020).

Regarding `CCCCCCOC(C)c1c(C)c2cc3nc(c4c5[nH]c(cc6nc(cc1[nH]2)C(C)=C6CC)c(C)c5C(=O)C4)[C@@H](CCC(=O)O)[C@@H]3C` (stereo partly drawn) [HPPH, 3-(1′-hexyloxyethyl)pyropheophorbide-a], the “PDT response (no tumor regrowth) / tumor cure” value in data set [1] and in data set [1] (listed as HPPH 1) was 40% each time. The plasma half lives in data set [2] was roughly 25 h. Moreover, in data set [3], the skin phototoxicity result is “low skin phototoxicity”.
On to iodobenzyl pheophorbide-a, for which the plasma half lives in data set [2] was roughly 25 h.
For the compound `CC1(C)C(=CC=C2CCCC(C=CC3=[N+](CCCCS(=O)(=O)[O-])c4ccc5ccccc5c4C3(C)C)=C2Cl)N(CCCCS(=O)(=O)[O-])c2ccc3ccccc3c21.[Na+]` [cyanine dye 2, IR820], the solubility in water entry in data set [4] is “water insoluble”.
